One experiment has as its system HT-29 cells. Put plainly: HT-29 cell necrosis/necroptosis inhibition (TNF-α + SMAC mimetic + zVAD-FMK; CellTiter-Glo cell viability). It is filed as cell-based. The settings on record: HT-29 cells, TNF-α 10 ng/ml + SMAC mimetic 6 μM + zVAD-FMK 10 μM, 20 hours; geometric mean, 10 points in duplicate; read-out: EC50 (Cell activity; Necrosis/Necroptosis Inhibitory Activity, Compounds 143-323). In outline:
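HT-29 cells (~5,000/well) were switched to FBS-free McCOY's 5A holding TNF-α (10 ng/ml), SMAC mimetic (6 μM) and zVAD-FMK (10 μM), then dosed with a 10-point 1:3 series for 20 h at 37 °C. CellTiter-Glo luminescence gave viability; geometric mean EC50 from duplicates.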
For orientation: In ATP-based viability assays light output follows the ATP content of the culture.
In general, EC50 refers to the concentration that produces a half-maximal response. In the case of `Cc1nc(C)n(-c2nc(N3CCN(C(=O)N4N=CCC4c4cnc(C)s4)CC3)ncc2F)n1` (centres unmarked) [Compound 214, (4-(4-(3,5-dimethyl-1H-1,2,4-triazol-1-yl)-5-fluoropyrimidin-2-yl)piperazin-1-yl)(5-(2-methylthiazol-5-yl)-4,5-dihydro-1H-pyrazol-1-yl)methanone], the EC50 lay within 0.1 to 100 nM.

Still in this experiment, the particulars now being: Homo sapiens; HT-29 cells, TNF-α 10 ng/ml + SMAC mimetic 6 μM + zVAD-FMK 10 μM, 20 hours; geometric mean, 10 points in duplicate; read-out: EC50 (Cell activity; Necrosis/Necroptosis Inhibitory Activity, Compounds 1-142).
`Cc1nn(C)cc1-c1nc(N2CCN(C(=O)N3N=CC[C@H]3c3cc(F)cc(F)c3)CC2)ncc1F` [Compound 14, (S)-(5-(3,5-difluorophenyl)-4,5-dihydro-1H-pyrazol-1-yl)(4-(4-(1,3-dimethyl-1H-pyrazol-4-yl)-5-fluoropyrimidin-2-yl)piperazin-1-yl)methanone]: the EC50 was in the range of 0.1 to 100 nM.
The same measure, in the same setting: the same measure for `Cc1ncc(-c2nc(N3CCN(C(=O)N4N=CC[C@H]4c4cc(F)cc(F)c4)CC3)ncc2F)s1` [Compound 56, (S)-(5-(3,5-difluorophenyl)-4,5-dihydro-1H-pyrazol-1-yl)(4-(5-fluoro-4-(2-methylthiazol-5-yl)pyrimidin-2-yl)piperazin-1-yl)methanone]: 0.1 to 100 nM.
Same read-out and setting: the value for `N#Cc1cc(F)cc([C@@H]2CC=NN2C(=O)N2CCN(c3nccc(-n4cc(C(N)=O)cn4)n3)CC2)c1` [Compound 102, (S)-1-(2-(4-(5-(3-cyano-5-fluorophenyl)-4,5-dihydro-1H-pyrazole-1-carbonyl)piperazin-1-yl)pyrimidin-4-yl)-1H-pyrazole-4-carboxamide] was 0.1 to 100 nM; that for `O=C(N1CCN(c2nccc(-n3nnnc3C(F)(F)F)n2)CC1)N1N=CC[C@H]1c1ccccc1` [Compound 104, (S)-(5-phenyl-4,5-dihydro-1H-pyrazol-1-yl)(4-(4-(5-(trifluoromethyl)-1H-tetrazol-1-yl)pyrimidin-2-yl)piperazin-1-yl)methanone] was 0.1 to 100 nM.
Still for that read-out and setting: the same measure for `Cc1c(-c2nc(N3CCN(C(=O)N4N=CC[C@H]4c4cc(F)cc(C#N)c4)CC3)ncc2F)nnn1CC(N)=O` [Compound 79, (S)-2-(4-(2-(4-(5-(3-cyano-5-fluorophenyl)-4,5-dihydro-1H-pyrazole-1-carbonyl)piperazin-1-yl)-5-fluoropyrimidin-4-yl)-5-methyl-1H-1,2,3-triazol-1-yl)acetamide]: 0.1 to 100 nM; for `NC(=O)c1cnn(-c2nc(N3CCN(C(=O)N4N=CC[C@H]4c4ccccc4)CC3)ncc2F)c1` [Compound 111, (S)-1-(5-fluoro-2-(4-(5-phenyl-4,5-dihydro-1H-pyrazole-1-carbonyl)piperazin-1-yl)pyrimidin-4-yl)-1H-pyrazole-4-carboxamide]: 0.1 to 100 nM; for `NC(=O)c1cnn(-c2nc(N3CCN(C(=O)N4N=CC[C@H]4c4cccc(F)c4)CC3)ncc2F)c1` [Compound 110, (S)-1-(5-fluoro-2-(4-(5-(3-fluorophenyl)-4,5-dihydro-1H-pyrazole-1-carbonyl)piperazin-1-yl)pyrimidin-4-yl)-1H-pyrazole-4-carboxamide]: 0.1 to 100 nM.
Consider `N#Cc1cc(F)cc([C@@H]2CC=NN2C(=O)N2CCN(c3ncc(F)c(-n4cnc(Cl)n4)n3)CC2)c1` [Compound 126, (S)-3-(1-(4-(4-(3-chloro-1H-1,2,4-triazol-1-yl)-5-fluoropyrimidinyl)piperazine-1-carbonyl)-4,5-dihydro-1H-pyrazol-5-yl)-5-fluorobenzonitrile], for which the half-maximal effective concentration (EC50) lay in the range of 0.1 to 100 nM.
Still for that read-out and setting: the value for `O=C(N1CCN(c2nccc(-c3cc[nH]n3)n2)CC1)N1N=CC[C@H]1c1cc(F)cc(F)c1` [Compound 33, (S)-(4-(4-(1H-pyrazol-3-yl)pyrimidin-2-yl)piperazin-1-yl)(5-(3,5-difluorophenyl)-4,5-dihydro-1H-pyrazol-1-yl)methanone] was 0.1 to 100 nM; that for `O=C(N1CCN(c2nccc(-c3nnn[nH]3)n2)CC1)N1N=CC[C@H]1c1cc(F)cc(F)c1` [Compound 4, (S)-(4-(4-(1H-tetrazol-5-yl)pyrimidin-2-yl)piperazin-1-yl)(5-(3,5-difluorophenyl)-4,5-dihydro-1H-pyrazol-1-yl)methanone] was 0.1 to 100 nM.
Consider `N#Cc1cc(F)cc([C@@H]2CC=NN2C(=O)N2CCN(c3ncc(F)c(-c4ccn(CC(N)=O)n4)n3)CC2)c1` [Compound 76, (S)-2-(3-(2-(4-(5-(3-cyano-5-fluorophenyl)-4,5-dihydro-1H-pyrazole-1-carbonyl)piperazin-1-yl)-5-fluoropyrimidin-4-yl)-1H-pyrazol-1-yl)acetamide], for which the EC50 was 0.1 to 100 nM.

The experiment is the same for the next values; noted with them: Homo sapiens; HT-29 cells, TNF-α 10 ng/ml + SMAC mimetic 6 μM + zVAD-FMK 10 μM, 20 hours; geometric mean, 10 points in duplicate; read-out: EC50 (Cell activity; Necrosis/Necroptosis Inhibitory Activity, Compounds 143-323).
Consider `Cc1nc(CF)nn1-c1nc(N2CCN(C(=O)N3N=CC[C@H]3c3cc(F)cc(C#N)c3)CC2)ncc1F` [Compound 246], for which the EC50 was 0.1 to 100 nM.
In the case of `Cc1ncc(C2CC=NN2C(=O)N2CCN(c3nc(-c4c(C)cnn4C)ccc3F)CC2)s1` (centres unmarked) [Compound 270, (4-(6-(1,4-dimethyl-1H-pyrazol-5-yl)-3-fluoropyridin-2-yl)piperazin-1-yl)(5-(2-methylthiazol-5-yl)-4,5-dihydro-1H-pyrazol-1-yl)methanone], the EC50 is 0.1 to 100 nM.
With `CCn1ncnc1-c1nc(N2CCN(C(=O)N3N=CC[C@H]3c3cc(F)cc(C#N)c3)CC2)ncc1Cl` [Compound 168, (S)-3-(1-(4-(5-chloro-4-(1-ethyl-1H-1,2,4-triazol-5-yl)pyrimidin-2-yl)piperazine-1-carbonyl)-4,5-dihydro-1H-pyrazol-5-yl)-5-fluorobenzonitrile], the EC50 lay in the range of 0.1 to 100 nM.
The same measure, in the same setting: the value for `Cc1cnn(C)c1-c1cc(N2CCN(C(=O)N3N=CCC3c3nccs3)CC2)c(F)cn1` (centres unmarked) [Compound 294, (4-(2-(1,4-dimethyl-1H-pyrazol-5-yl)-5-fluoropyridin-4-yl)piperazin-1-yl)(5-(thiazol-2-yl)-4,5-dihydro-1H-pyrazol-1-yl)methanone] was 100 to 1000 nM; that for `Cn1nc(C(=O)O)nc1-c1nc(N2CCN(C(=O)N3N=CCC3c3cc(F)cc(F)c3)CC2)ncc1F` (centres unmarked) [Compound 230, 5-(2-(4-(5-(3,5-difluorophenyl)-4,5-dihydro-1H-pyrazole-1-carbonyl)piperazin-1-yl)-5-fluoropyrimidin-4-yl)-1-methyl-1H-1,2,4-triazole-3-carboxylic acid] was 100 to 1000 nM.
On the same count and under the same terms, the same measure for `Cc1nc(C(F)(F)F)nn1-c1nc(N2CCN(C(=O)N3N=CC[C@H]3c3cc(F)cc(F)c3)CC2)ncc1F` [Compound 203, (S)-(5-(3,5-difluorophenyl)-4,5-dihydro-1H-pyrazol-1-yl)(4-(5-fluoro-4-(5-methyl-3-(trifluoromethyl)-1H-1,2,4-triazol-1-yl)pyrimidin-2-yl)piperazin-1-yl)methanone]: 0.1 to 100 nM; for `Cc1cnn(C)c1-c1nc(N2CCN(C(=O)N3N=CC[C@H]3c3cc(F)cc(C#N)c3)CC2)sc1CO` [Compound 266, (S)-3-(1-(4-(4-(1,4-dimethyl-1H-pyrazol-5-yl)-5-(hydroxymethyl)thiazol-2-yl)piperazine-1-carbonyl)-4,5-dihydro-1H-pyrazol-5-yl)-5-fluorobenzonitrile]: 1000 to 10000 nM; for `Cn1nc(CF)nc1-c1nc(N2CCN(C(=O)N3N=CC[C@H]3c3cc(F)cc(C#N)c3)CC2)ncc1F` [Compound 170, (S)-3-fluoro-5-(1-(4-(5-fluoro-4-(3-(fluoromethyl)-1-methyl-1H-1,2,4-triazol-5-yl)pyrimidin-2-yl)piperazine-1-carbonyl)-4,5-dihydro-1H-pyrazol-5-yl)benzonitrile]: 0.1 to 100 nM.

The record behind these values is patent publication US12454529B2, “Piperazine cyclic ureas” (SIRONAX LTD., priority 2020, dated 2025).
